pIC50: −log10 of the molar value. Where two headings read alike, the source gives them in different places.

We go through 26 compounds from patent US8580829B2 (Boehringer Ingelheim International GmbH, priority 2010, dated 2013).

In assay [1] the test system is synthesis of LTB4 in human whole blood. Put plainly: human whole blood LTB4 production inhibition assay. It counts as cell-based. The note with it: heparinized human whole blood, calcimycin 20 μM, read-out: hWB LTB4 IC50. The method, then:
Compounds are additionally tested in a human whole blood assay to determine their ability to inhibit the synthesis of LTB4 in a cellular system. Compounds are combined with heparinized human whole blood and incubated for 15 minutes at 37° C. Calcimycin (20 μM final, prepared in phosphate-buffered saline, pH 7.4) is then added and the mixture is incubated for another 30 minutes at 37° C. The samples are centrifuged for 5 min at low speed (1500×g) and the plasma layer is removed. Plasma LTB4 concentrations are then measured using an antibody-based homogenous time-resolved fluorescence method (CisBio, Bedford, Mass.).

Assay [2] has as its target T1, recombinant human FLAP protein (Homo sapiens, UniProt P20292).
T1 construct: made in house; host or cells: Sf9 insect cells (100,000 x g membrane fraction)
T1 sequence (P20292 1-161): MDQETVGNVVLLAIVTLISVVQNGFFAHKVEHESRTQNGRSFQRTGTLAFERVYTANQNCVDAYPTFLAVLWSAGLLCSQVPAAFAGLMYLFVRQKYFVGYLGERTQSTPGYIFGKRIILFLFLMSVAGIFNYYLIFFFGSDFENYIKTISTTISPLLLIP
Put plainly: FLAP binding assay (Scintillation Proximity Assay, displacement of [125I]L-691,831). The note with it: recombinant human FLAP membranes, [125I]L-691,831 probe; read-out: FLAP SPA IC50. The procedure: Cell pellets produced from sf9 insect cells expressing recombinant human FLAP protein are resuspended in buffer A [15 mM Tris-HCl (pH 7.5), 2 mM MgCl2, 0.3 mM EDTA, 1 mM PMSF]. The cells are lysed with a Dounce homogenizer and the material is centrifuged at 10,000×g for 10 minutes. The supernatant is then collected and centrifuged at 100,000×g for 60 minutes. To prepare membrane protein for an assay, an aliquot of the 100,000×g pellet is resuspended in 1 ml of buffer A, Dounce homogenized, and finally subjected to polytron mixing (30 seconds). Membrane protein (25 μl, 5 μg) is mixed with WGA SPA beads (Amersham) and stirred for 1 h.

For `Nc1cc(-c2nc(C3(c4ccc(-c5cnc(N)nc5)cc4)CCC3)no2)ccn1` [Example 37, 5-(4-{1-[5-(2-Amino-pyridin-4-yl)-1,2,4-oxadiazol-3-yl]-cyclobutyl}-phenyl)-pyrimidin-2-ylamine], the pIC50 in assay [1] (Homo sapiens) was 6.47; in assay [2], 8.43.

Turning to `Nc1ncc(-c2ccc(C3(c4noc(-c5cnccn5)n4)CCC3)cc2)cn1` [Example 158, 5-{4-[1-(5-Pyrazin-2-yl-1,2,4-oxadiazol-3-yl)-cyclobutyl]-phenyl}-pyrimidin-2-ylamine], the pIC50 in assay [1] (Homo sapiens) is 6.44; in assay [2], 8.24.

In the case of `Nc1ncc(-c2ccc(C3(c4noc(-c5cnc(N6CCNCC6)cn5)n4)CCC3)cc2)cn1` [Example 124, 5-(4-{1-[5-(3,4,5,6-Tetrahydro-1H-1,2′-bipyrazinyl-5′-yl)-1,2,4-oxadiazol-3-yl]-cyclobutyl}-phenyl)-pyrimidin-2-ylamine], the pIC50 in assay [1] was less than 5.30; in assay [2] it was 8.46.

As to `Nc1ncc(-c2ccc(C3(c4noc(-c5cnc(N6CCOCC6)cn5)n4)CCC3)cc2)cn1` [Example 85, 5-(4-{1-[5-(5-Morpholin-4-yl-pyrazin-2-yl)-1,2,4-oxadiazol-3-yl]-cyclobutyl}-phenyl)-pyrimidin-2-ylamine], the negative-log IC50 (pIC50) in assay [1] (Homo sapiens) is 7.15; in assay [2], 8.89.

As for `Cc1n[nH]cc1-c1nc(C2(c3ccc(-c4cnc(N)nc4)cc3)CCC2)no1` [Example 6, 5-(4-{1-[5-(3-Methyl-1H-pyrazol-4-yl)-1,2,4-oxadiazol-3-yl]-cyclobutyl}-phenyl)-pyrimidin-2-ylamine], the values for the pIC50 in assay [1] (Homo sapiens) and in assay [2] were 6.82 and 8.96, respectively.

`Nc1ncc(-c2ccc(C3(c4noc(-c5ccc(C(=O)N6CCC6)nc5)n4)CCC3)cc2)cn1` [Example 70, [5-(3-{1-[4-(2-Amino-pyrimidin-5-yl)-phenyl]-cyclobutyl}-1,2,4-oxadiazol-5-yl)-pyridin-2-yl]-azetidin-1-yl-methanone]: the pIC50 in assay [1] (Homo sapiens) was 6.66; in assay [2] it was 8.52.

With `Cn1ncc(-c2nc(C3(c4ccc(-c5cnc(N)nc5)cc4)CCC3)no2)c1N` [Example 7, 5-(4-{1-[5-(5-Amino-1-methyl-1H-pyrazol-4-yl)-1,2,4-oxadiazol-3-yl]-cyclobutyl}-phenyl)-pyrimidin-2-ylamine], the negative logarithm of the IC50 (pIC50) in assay [1] (Homo sapiens) is 7.30; in assay [2], 8.62.

As for `Nc1ccc(-c2ccc(C3(c4noc(-c5cnc(N6CCNCC6)cn5)n4)CCC3)cc2)cn1` [Example 296, 5-(4-{1-[5-(3,4,5,6-Tetrahydro-2H-[1,2′]bipyrazinyl-5′-yl)-[1,2,4]oxadiazol-3-yl]-cyclobutyl}-phenyl)-pyridin-2-ylamine], the values for the pIC50 in assay [1] (Homo sapiens) and in assay [2] were 6.64 and 8.68, respectively.

For `CS(=O)(=O)CCNC(=O)Cn1cc(-c2nc(C3(c4ccc(-c5cnc(N)nc5)cc4)CCC3)no2)cn1` [Example 225, 2-[4-(3-{1-[4-(2-Amino-pyrimidin-5-yl)-phenyl]-cyclobutyl}-[1,2,4]oxadiazol-5-yl)-pyrazol-1-yl]-N-(2-methanesulfonyl-ethyl)-acetamide], the pIC50 in assay [1] (Homo sapiens) is less than 5.30; in assay [2], 9.05.

Take `CS(=O)(=O)CCNc1ccc(-c2nc(C3(c4ccc(-c5cnc(N)nc5)cc4)CCC3)no2)cn1` [Example 108, 5-[4-(1-{5-[6-(2-Methanesulfonyl-ethylamino)-pyridin-3-yl]-1,2,4-oxadiazol-3-yl}-cyclobutyl)-phenyl]-pyrimidin-2-ylamine]: the pIC50 in assay [1] (Homo sapiens) was 6.96; in assay [2] it was 8.89.

As for `CC(C)Nc1cnc(-c2nc(C3(c4ccc(-c5cnc(N)nc5)cc4)CCC3)no2)cn1` [Example 197, 5-(4-{1-[5-(5-Isopropylamino-pyrazin-2-yl)-1,2,4-oxadiazol-3-yl]-cyclobutyl}-phenyl)-pyrimidin-2-ylamine], the negative logarithm of the IC50 (pIC50) in assay [1] (Homo sapiens) was 7.32; in assay [2] it was 8.82.

Consider `Nc1ncc(-c2ccc(C3(c4noc(N5CCC[C@@H]5CO)n4)CCC3)cc2)cn1` [Example 289, [(R)-1-(3-{1-[4-(2-Amino-pyrimidin-5-yl)-phenyl]-cyclobutyl}-[1,2,4]oxadiazol-5-yl)-pyrrolidin-2-yl]-methanol], for which the figures for the pIC50 in assay [1] (Homo sapiens) and in assay [2] were 6.30 and 7.51, respectively.

As to `Cn1cnc(-c2nc(C3(c4ccc(-c5cnc(N)cn5)cc4)CCC3)no2)c1` [Example 265], the results for the pIC50 in assay [1] (Homo sapiens) and in assay [2] were 7.26 and 8.21, respectively.

For `CC(C)CNC(=O)Cn1cc(-c2nc(C3(c4ccc(-c5cnc(N)nc5)cc4)CCC3)no2)cn1` [Example 217, 2-[4-(3-{1-[4-(2-Amino-pyrimidin-5-yl)-phenyl]-cyclobutyl}-[1,2,4]oxadiazol-5-yl)-pyrazol-1-yl]-N-isobutyl-acetamide], the pIC50 is 7.09 in assay [1] (Homo sapiens) and 8.47 in assay [2].

On to `Nc1ncc(-c2ccc(C3(c4noc(-c5cncnc5)n4)CCC3)cc2)cn1` [Example 159, 5-{4-[1-(5-Pyrimidin-5-yl-1,2,4-oxadiazol-3-yl)-cyclobutyl]-phenyl}-pyrimidin-2-ylamine], for which the pIC50 in assay [1] (Homo sapiens) is 6.47; in assay [2], 8.22.

Turning to `Cn1cc(-c2nc(C3(c4ccc(-c5cnc(N)nc5)cc4)CCC3)no2)ncc1=O` [Example 31, 5-(3-{1-[4-(2-Amino-pyrimidin-5-yl)-phenyl]-cyclobutyl}-1,2,4-oxadiazol-5-yl)-1-methyl-1Hpyrazin-2-one], the pIC50 is 5.89 in assay [1] (Homo sapiens) and 8.52 in assay [2].

As to `Cn1cc(-c2nc(C3(c4ccc(-c5ccc(N)nc5)cc4)CCC3)no2)cn1` [Example 215, 5-(4-{1-[5-(1-Methyl-1H-pyrazol-4-yl)-[1,2,4]oxadiazol-3-yl]-cyclobutyl}-phenyl)-pyridin-2-ylamine], the negative logarithm of the IC50 (pIC50) in assay [1] (Homo sapiens) is 7.59; in assay [2], 8.68.

Consider `CC(CO)n1cc(-c2nc(C3(c4ccc(-c5cnc(N)nc5)cc4)CCC3)no2)cn1` (stereo not shown) [Example 82, 2-[4-(3-{1-[4-(2-Amino-pyrimidin-5-yl)-phenyl]-cyclobutyl}-1,2,4-oxadiazol-5-yl)-pyrazol-1-yl]-propan-1-ol], for which the pIC50 in assay [1] (Homo sapiens) is 7.00; in assay [2], 8.51.

Regarding `CCNc1ccc(-c2nc(C3(c4ccc(-c5cnc(N)nc5)cc4)CCC3)no2)cn1` [Example 183, 5-(4-{1-[5-(6-Ethylamino-pyridin-3-yl)-1,2,4-oxadiazol-3-yl]-cyclobutyl}-phenyl)-pyrimidin-2-ylamine], the pIC50 is 7.28 in assay [1] (Homo sapiens) and 9.06 in assay [2].

Regarding `Cc1ncccc1-c1nc(C2(c3ccc(-c4cnc(N)nc4)cc3)CCC2)no1` [Example 167, 5-(4-{1-[5-(2-Methyl-pyridin-3-yl)-1,2,4-oxadiazol-3-yl]-cyclobutyl}-phenyl)-pyrimidin-2-ylamine], the pIC50 is 6.18 in assay [1] (Homo sapiens) and 8.29 in assay [2].

Turning to `Nc1ncc(-c2ccc(C3(c4noc(-c5ccc(Cl)cc5)n4)CCC3)cc2)cn1` [Example 46, 5-(4-{1-[5-(4-Chloro-phenyl)-1,2,4-oxadiazol-3-yl]-cyclobutyl}-phenyl)-pyrimidin-2-ylamine], the values for the pIC50 in assay [1] (Homo sapiens) and in assay [2] were 5.82 and 8.12, respectively.

Consider `CCN(C)C(=O)Cn1cc(-c2nc(C3(c4ccc(-c5cnc(N)nc5)cc4)CCC3)no2)cn1` [Example 138, 2-[4-(3-{1-[4-(2-Amino-pyrimidin-5-yl)-phenyl]-cyclobutyl}-1,2,4-oxadiazol-5-yl)-pyrazol-1-yl]-N-ethyl-N-methyl-acetamide], for which the pIC50 in assay [1] (Homo sapiens) was 7.42; in assay [2], 8.55.

With `CCn1cccc(-c2nc(C3(c4ccc(-c5cnc(N)nc5)cc4)CCC3)no2)c1=O` [Example 65, 3-(3-{1-[4-(2-Amino-pyrimidin-5-yl)-phenyl]-cyclobutyl}-1,2,4-oxadiazol-5-yl)-1-ethyl-1H-pyridin-2-one], the pIC50 in assay [1] (Homo sapiens) is 7.01; in assay [2] it was 8.23.

Consider `Nc1ncc(-c2ccc(C3(c4noc(-c5ccc[nH]c5=O)n4)CCC3)cc2)cn1` [Example 173, 3-(3-{1-[4-(2-amino-pyrimidin-5-yl)-phenyl]-cyclobutyl}-1,2,4-oxadiazol-5-yl)-1H-pyridin-2-one], for which the results for the negative-log IC50 (pIC50) in assay [1] (Homo sapiens) and in assay [2] were less than 5.30 and 8.54, respectively.

Consider `Nc1ncc(-c2ccc(C3(c4noc(-c5cnn(CCN6CCOCC6)c5)n4)CCC3)cc2)cn1` [Example 232, 5-[4-(1-{5-[1-(2-Morpholin-4-yl-ethyl)-1H-pyrazol-4-yl]-[1,2,4]oxadiazol-3-yl}-cyclobutyl)-phenyl]-pyrimidin-2-ylamine], for which the pIC50 was 7.59 in assay [1] (Homo sapiens) and 8.74 in assay [2].

Turning to `CS(=O)(=O)N1CCN(c2cnc(-c3nc(C4(c5ccc(-c6cnc(N)nc6)cc5)CCC4)no3)cn2)CC1` [Example 202, 5-(4-{1-[5-(4-Methanesulfonyl-3,4,5,6-tetrahydro-2H-1,2′-bipyrazinyl-5′-yl)-1,2,4-oxadiazol-3-yl]-cyclobutyl}-phenyl)-pyrimidin-2-ylamine], the negative-log IC50 (pIC50) in assay [1] (Homo sapiens) was 7.15; in assay [2], 8.59.

By pIC50 is commonly meant −log10 of the IC50, conventionally taken in molar units.
